Test results from article PMC8875126, “Mechanistic Insights into Stereospecific Antifungal Activity of Chiral Fungicide Prothioconazole against Fusarium oxysporum F. sp. cubense” (International Journal of Molecular Sciences, 2022).

Biological target: T1, N1RIS1_FUSC4 (CYP51 of TR4; Eburicol 14-alpha-demethylase) (Fusarium odoratissimum, UniProt N1RIS1)
T1 construct: gene FOC4_g10015154
T1 sequence (N1RIS1 1-527): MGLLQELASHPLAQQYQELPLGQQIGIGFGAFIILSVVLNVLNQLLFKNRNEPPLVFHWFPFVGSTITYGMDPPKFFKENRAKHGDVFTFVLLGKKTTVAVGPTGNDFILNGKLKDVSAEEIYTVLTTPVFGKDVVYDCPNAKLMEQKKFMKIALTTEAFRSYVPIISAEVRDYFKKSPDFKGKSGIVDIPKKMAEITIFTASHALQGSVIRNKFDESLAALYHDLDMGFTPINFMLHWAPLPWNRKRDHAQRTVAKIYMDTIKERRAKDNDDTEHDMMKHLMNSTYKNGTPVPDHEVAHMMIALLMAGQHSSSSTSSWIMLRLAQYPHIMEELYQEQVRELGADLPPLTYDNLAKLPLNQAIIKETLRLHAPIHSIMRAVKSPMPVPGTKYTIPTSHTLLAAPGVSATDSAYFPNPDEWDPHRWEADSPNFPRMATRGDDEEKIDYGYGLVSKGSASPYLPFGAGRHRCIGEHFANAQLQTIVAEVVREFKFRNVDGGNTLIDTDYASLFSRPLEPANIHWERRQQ
Experiment: SPR (Biacore T200, protein amine-coupled on CM5 chip, […] kinetic fit)
Assay type: binding
Details: 25 °C; 3.125-50 μM analyte

O[C@](Cc1ccccc1Cl)(Cn1[nH]cnc1=S)C1(Cl)CC1 [R-Pro]
Kd: 0.342 nM
